These are literature values, as cited in patent US6551555B2, “Apparatus with a chemical indicator for indicating exposure to an oxidative sterilant or disinfectant” (Ethicon, Inc., priority 1997, dated 2003).

For the series the following is noted: Sigma-Aldrich catalog number 229288.

As to `CN(C)c1ccc(C(=C2C=CC(=[N+](C)C)C=C2)c2ccc(N(C)C)cc2)cc1` [crystal violet], the toxicity hazards entry is “toxic and may cause cancer, heritable genetic damage and irritate the eyes, respiratory system and skin”.
